The source of these data is ChEMBL document CHEMBL1143859, “Identification and synthesis of a unique thiocarbazate cathepsin L inhibitor” (Bioorg Med Chem Lett, 2008).

Sequence of Procathepsin L (P07711 whole entry): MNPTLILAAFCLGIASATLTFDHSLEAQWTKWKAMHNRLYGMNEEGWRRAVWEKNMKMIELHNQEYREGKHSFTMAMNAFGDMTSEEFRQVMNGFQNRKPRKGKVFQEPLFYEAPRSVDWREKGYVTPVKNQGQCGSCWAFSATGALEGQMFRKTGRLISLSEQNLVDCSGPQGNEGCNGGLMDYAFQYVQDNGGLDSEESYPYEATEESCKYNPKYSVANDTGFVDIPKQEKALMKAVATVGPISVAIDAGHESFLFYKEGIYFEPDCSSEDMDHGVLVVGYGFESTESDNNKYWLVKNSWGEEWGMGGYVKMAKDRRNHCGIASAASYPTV

This experiment concerns the target Procathepsin L (Homo sapiens, UniProt P07711). The experiment is described as follows: Inhibition of cathepsin L.
The IC50 is the concentration needed to halve the response being measured. As to `CCc1ccccc1NC(=O)CSC(=O)NNC(=O)[C@@H](N)Cc1c[nH]c2ccccc12`, the IC50 stood at 133 nM. This counts as sub-micromolar. Then `CN(C)C(=O)CSc1nnc([C@@H](N)Cc2c[nH]c3ccccc23)o1`, with 170 nM; and `CCN(CC)C(=O)CSc1nnc([C@@H](N)Cc2c[nH]c3ccccc23)o1`, with 510 nM. In the case of `Cc1cccc(NC(=O)CSc2nnc(C(N)Cc3c[nH]c4ccccc34)o2)c1C` (single isomer, unassigned) it was 300 nM; in that of `Cc1ccc(NC(=O)CSc2nnc(C(N)Cc3c[nH]c4ccccc34)o2)c(C)c1` (single isomer, unassigned), 160 nM. The compound `CCc1ccccc1NC(=O)CSc1nnc(C(N)Cc2c[nH]c3ccccc23)o1` (single isomer, unassigned) registered an IC50 of 130 nM.
